In patent publication US10513623B2, “Aqueous ink, ink cartridge and image recording method” (CANON KABUSHIKI KAISHA, priority 2017, dated 2019):

What was measured:
[1] = Aqueous solubility of solvent A at 20° C.; assay type: physicochemical; settings: for Aqueous solubility: 20° C.
[2] = Log distribution coefficient of solvent A; assay type: physicochemical

Aqueous solubility [1] [% by mass] | aqueous solubility of the solvent A ([1]; solvent A of ink 1, rounded value) [%] | Log distribution coefficient [2] | SMILES
0.1 |  | 2.4 | OCCCCc1ccccc1 [4-Phenyl-1-butanol]
4.29 |  | 1.03 | OCc1ccccc1 [Benzyl alcohol]
0.568 |  | 1.88 | OCCCc1ccccc1 [3-Phenyl-1-propanol]
2.2 |  |  | OCCc1ccccc1 [Phenethyl alcohol]

More lines, now with the values behind:

SMILES | Aqueous solubility [1] [% by mass] | aqueous solubility of the solvent A ([1]; solvent A of ink 1, rounded value) [%] | Log distribution coefficient [2]
OCCOc1ccccc1 [2-Phenoxyethanol] | 2.67 | 2.7 | 1.16
CC(O)Cc1ccccc1 (centres unmarked) [1-Phenyl-2-propanol] | 0.58 |  | 1.71
CC(O)COc1ccccc1 (centres unmarked) [1-Phenoxy-2-propanol] | 1.1 |  | 1.51
